Consider 56 compounds from ChEMBL document CHEMBL3272248, “beta-Adrenergic blocking agents. 18. 1-(Aryloxy)-3-(arylthioalkylamino)propan-2-ols and 1-substituted alkylthioamino-3-(aryloxy)propan-2-ols” (1978).

Structures are written as SMILES. Activity calls are given as the source filed them. The calls are words filed in the database; no cut-off is given here.

In assay [1] the test system is Felis catus. Kind of assay: In vivo inhibition of beta-1 adrenergic receptor in iv dosed cat assessed as inhibition of isoproterenol-induced trachycardia after 30 mins. In kind it is functional. Conditions: 0.5 h.
In assay [2] the test system is Felis catus. Kind of assay: In vivo inhibition of beta-2 adrenergic receptor in iv dosed cat assessed as inhibition of isoproterenol-induced vasodepressor response after 30 mins. It counts as functional.
Assay [3] concerns Felis catus. The assay is described as follows: In vivo inhibition of beta-1 adrenergic receptor in cat assessed as inhibition of isoproterenol-induced trachycardia at 200 ug/kg/min, iv after 30 mins. In kind it is functional, organism-based.

The ED50 is the midpoint of the dose-response relation. In the case of `Cc1ccccc1OCC(O)CNCC[S+]([O-])c1ccccc1.O=C(O)C(=O)O` (stereo unspecified), the median effective dose (ED50) with Felis catus [1] stood at 0.799 mg/kg. In addition, in the assay with Felis catus [2], the “inhibition (INH)” value was found to be 54%. In the same order, the values of `Cc1ccc(SCCCNCC(O)COc2ccccc2)cc1.Cl` (stereo unspecified) are 1.26 mg/kg and 11%. Take `Cc1cccc(OCC(O)CNCCSc2ccccc2)c1` (stereo unspecified): in the assay with Felis catus [3], the inhibition entry is “inactive”.

In the case of `CCSCCCNCC(O)COc1ccccc1C#N.O=C(O)C(=O)O` (stereo unspecified), the ED50 with Felis catus [1] was 0.135 mg/kg. Also, in the assay with Felis catus [2], the “inhibition (INH)” value is listed as 0%. Take `CCSCCNCC(O)COc1ccccc1[N+](=O)[O-]` (stereo unspecified): the inhibition result in the assay with Felis catus [3] was “inactive”.

With `CC[S+]([O-])CCNCC(O)COc1ccccc1.O=C(O)C(=O)O` (stereo unspecified), the ED50 in the assay with Felis catus [1] turned out to be 0.195 mg/kg. For the same compound, in the assay on Felis catus [2], the “inhibition (INH)” value was determined as 10%. For `CCC(C)(C)CSCCCNCC(O)COc1ccccc1.O=C(O)C(=O)O` (stereo unspecified), the ED50 in the assay with Felis catus [1] came out at 0.083 mg/kg. Besides, in the assay on Felis catus [2], the “inhibition (INH)” value came out at 0%.

Consider `O=C(O)C(=O)O.OC(CNCCCSC1CCCCC1)COc1ccccc1` (stereo unspecified), for which the ED50 with Felis catus [1] was found to be 0.781 mg/kg. Also, the “inhibition (INH)” value with Felis catus [2] amounted to 37%. In the same order, the values of `Cc1ccc([S+]([O-])CCNCC(O)COc2ccccc2)cc1` (stereo unspecified) are 0.121 mg/kg and 13%. On to `CCSCCNCC(O)COc1ccccc1C#N.O=C(O)C(=O)O` (stereo unspecified), for which the 50% effective dose (ED50) in the assay on Felis catus [1] turned out to be 0.2 mg/kg. As to `CCSCCCNCC(O)COc1ccccc1OC.O=C(O)C(=O)O` (stereo unspecified), the ED50 in the assay with Felis catus [1] came out at 0.285 mg/kg. Moreover, in the assay with Felis catus [2], the “inhibition (INH)” value turned out to be 70%. In the case of `CC(C)SCCCNCC(O)COc1ccccc1.O=C(O)C(=O)O` (stereo unspecified), the 50% effective dose (ED50) in the assay on Felis catus [1] was 0.333 mg/kg. The “inhibition (INH)” value with Felis catus [2] is 0%. On the same counts, the results for `CCSCCCNCC(O)COc1ccccc1Br.O=C(O)C(=O)O` (stereo unspecified) are 0.212 mg/kg and 0%. In the same order, the values of `CC(CSc1ccccc1)NCC(O)COc1ccccc1Cl.O=C(O)C(=O)O` (stereo unspecified) are 0.058 mg/kg and 60%. In the case of `COc1ccccc1OCC(O)CNCCSc1ccccc1` (stereo unspecified), in the assay with Felis catus [3], the inhibition result is “inactive”.

As to `Cc1ccccc1OCC(O)CNCCOc1ccc(C(N)=O)cc1` (stereo unspecified) [TOLAMOLOL], the “inhibition (INH)” value in the assay with Felis catus [2] was 81%. In the case of `O=C(O)C(=O)O.[O-][S+](CCCNCC(O)COc1ccccc1)C1CCCCC1` (stereo unspecified), the median effective dose (ED50) in the assay on Felis catus [1] was 0.162 mg/kg. In addition, the “inhibition (INH)” value in the assay on Felis catus [2] came out at 68%.

Consider `CC(CSc1ccccc1)NCC(O)COc1ccccc1.O=C(O)C(=O)O` (stereo unspecified), for which the 50% effective dose (ED50) in the assay on Felis catus [1] was found to be 0.016 mg/kg. In the assay on Felis catus [2], the “inhibition (INH)” value stood at 0%.

`CC(C)(CSc1ccccc1)NCC(O)COc1ccccc1.O=C(O)C(=O)O` (stereo unspecified): the median effective dose (ED50) in the assay on Felis catus [1] came out at 0.065 mg/kg. In the assay on Felis catus [2], the “inhibition (INH)” value stood at 40%. In the same order, the values of `CCSCCCNCC(O)COc1ccccc1Cl` (stereo unspecified) are 0.269 mg/kg and 52%. With `CCCc1ccccc1OCC(O)CNCCCSCC` (stereo unspecified), the inhibition entry in the assay on Felis catus [3] was “inactive”. `O=[N+]([O-])c1ccccc1OCC(O)CNCCSCc1ccccc1` (stereo unspecified): the 50% effective dose (ED50) with Felis catus [1] amounted to 0.946 mg/kg. Moreover, in the assay with Felis catus [2], the “inhibition (INH)” value was 0%. Turning to `Cc1ccccc1OCC(O)CNCCSCc1ccccc1` (stereo unspecified), in the assay with Felis catus [3], the inhibition result was “inactive”. For the compound `O=S(=O)(CCNCC(O)COc1ccccc1)c1ccccc1` (stereo unspecified), the 50% effective dose (ED50) in the assay on Felis catus [1] came to 1.33 mg/kg. In addition, the “inhibition (INH)” value in the assay on Felis catus [2] is reported as 53%. For the compound `CCSCCCNCC(O)COc1ccccc1.O=C(O)C(=O)O` (stereo unspecified), the median effective dose (ED50) in the assay on Felis catus [1] was 0.838 mg/kg. Further, the “inhibition (INH)” value with Felis catus [2] is 14%. As to `Cc1ccccc1OCC(O)CNCCSc1ccccc1` (stereo unspecified), the ED50 with Felis catus [1] is 1.55 mg/kg. Further, the “inhibition (INH)” value with Felis catus [2] stood at 53%. For the compound `CCSCCCNCC(O)COc1ccc(OC)cc1` (stereo unspecified), the inhibition entry in the assay with Felis catus [3] is “inactive”. Still for that read-out and setting: for `Cc1ccc(SCCCNCC(O)COc2ccccc2[N+](=O)[O-])cc1` (stereo unspecified) the value was “inactive”; for `N#Cc1ccccc1OCC(O)CNCCSc1ccccc1` (stereo unspecified), “inactive”. As to `OC(CNCCSCc1ccccc1)COc1ccccc1Cl` (stereo unspecified), in the assay with Felis catus [3], the inhibition result was “inactive”.

As for `OC(CNCCSc1ccccc1)COc1ccccc1` (stereo unspecified), the ED50 in the assay with Felis catus [1] stood at 0.138 mg/kg. Also, in the assay with Felis catus [2], the “inhibition (INH)” value came out at 13%.

For the compound `CC(CNCC(O)COc1ccccc1)Sc1ccccc1.O=C(O)C(=O)O` (stereo unspecified), in the assay on Felis catus [1], the 50% effective dose (ED50) was determined as 0.559 mg/kg. Moreover, the “inhibition (INH)” value in the assay on Felis catus [2] is listed as 18%.

With `Cc1ccccc1OCC(O)CNCCCSc1ccccc1` (stereo unspecified), the inhibition result in the assay on Felis catus [3] was “inactive”.

Regarding `Cc1ccc(SCCNCC(O)COc2ccccc2)cc1` (stereo unspecified), the ED50 in the assay on Felis catus [1] came to 0.289 mg/kg. Further, in the assay with Felis catus [2], the “inhibition (INH)” value is 43%.

`CCSCCCNCC(O)COc1ccc(CC(N)=O)cc1` (stereo unspecified): in the assay on Felis catus [3], the inhibition result was “inactive”.

Turning to `CCSCCCNCC(O)COc1ccc([N+](=O)[O-])cc1` (stereo unspecified), in the assay on Felis catus [3], the inhibition entry is “inactive”.

As to `CC(C)(C[S+]([O-])c1ccccc1)NCC(O)COc1ccccc1.O=C(O)C(=O)O` (stereo unspecified), the median effective dose (ED50) with Felis catus [1] is 0.185 mg/kg. In addition, the “inhibition (INH)” value with Felis catus [2] amounted to 84%.

For `O=C(O)C(=O)O.OC(CNCCSCc1ccccc1)COc1ccccc1` (stereo unspecified), in the assay on Felis catus [1], the ED50 was 0.207 mg/kg.

Regarding `O=C(O)C(=O)O.O=[N+]([O-])c1ccccc1OCC(O)CNCCSC1CCCCC1` (stereo unspecified), the ED50 in the assay with Felis catus [1] was 0.427 mg/kg. The “inhibition (INH)” value with Felis catus [2] came to 37%. On to `O=[N+]([O-])c1ccccc1OCC(O)CNCCC[S+]([O-])C1CCCCC1` (stereo unspecified), for which, in the assay on Felis catus [3], the inhibition result was “inactive”. As for `C=CCc1ccccc1OCC(O)CNCCCSCC.O=C(O)C(=O)O` (stereo unspecified), the median effective dose (ED50) with Felis catus [1] was 0.72 mg/kg. The “inhibition (INH)” value with Felis catus [2] is reported as 65%. Consider `O=C(O)C(=O)O.OC(CNCCSc1ccccc1)COc1ccccc1Cl` (stereo unspecified), for which the ED50 with Felis catus [1] was found to be 1.46 mg/kg. In the assay with Felis catus [2], the “inhibition (INH)” value is on record as 0%.

In the case of `CCSCCCNCC(O)COc1ccccc1[N+](=O)[O-].O=C(O)C(=O)O` (stereo unspecified), the ED50 in the assay on Felis catus [1] came out at 0.13 mg/kg. For the same compound, in the assay on Felis catus [2], the “inhibition (INH)” value came to 12%. On to `O=C(O)C(=O)O.O=[N+]([O-])c1ccccc1OCC(O)CNCCCS(=O)(=O)C1CCCCC1` (stereo unspecified), for which, in the assay with Felis catus [1], the median effective dose (ED50) worked out at 1.46 mg/kg. The “inhibition (INH)” value with Felis catus [2] is listed as 75%. In the same order, the values of `CC(NCC(O)COc1ccccc1)C(C)Sc1ccccc1.O=C(O)C(=O)O` (stereo unspecified) are 0.195 mg/kg and 32%. For `CCSCCCNCC(O)COc1ccc(NC(C)=O)cc1` (stereo unspecified), the inhibition result with Felis catus [3] is “inactive”. In the case of `COc1ccc(OCC(O)CNCCSc2ccccc2)cc1` (stereo unspecified), the inhibition result with Felis catus [3] was “inactive”.

As to `Cl.OC(CNCCSC1CCCCC1)COc1ccccc1` (stereo unspecified), in the assay on Felis catus [1], the ED50 amounted to 0.162 mg/kg. In addition, the “inhibition (INH)” value with Felis catus [2] is reported as 0%. In the same order, the values of `CCSCCNCC(O)COc1ccccc1.Cl` (stereo unspecified) are 0.332 mg/kg and 0%. Consider `O=C(O)C(=O)O.[O-][S+](CCNCC(O)COc1ccccc1)Cc1ccccc1` (stereo unspecified), for which the median effective dose (ED50) with Felis catus [1] was found to be 0.156 mg/kg. Besides, the “inhibition (INH)” value in the assay on Felis catus [2] is reported as 20%.

As for `[O-][S+](CCNCC(O)COc1ccccc1)c1ccccc1` (stereo unspecified), the ED50 with Felis catus [1] amounted to 0.044 mg/kg. Further, the “inhibition (INH)” value in the assay with Felis catus [2] was determined as 0%. In the case of `Cl.OC(CNCCCSc1ccccc1)COc1ccccc1` (stereo unspecified), the ED50 in the assay on Felis catus [1] came out at 0.415 mg/kg. Turning to `OC(CNCCSc1ccc(Cl)cc1)COc1ccccc1` (stereo unspecified), the inhibition result with Felis catus [3] was “inactive”. As for `[O-][S+](CCNCC(O)COc1ccccc1)c1ccc(Cl)cc1` (stereo unspecified), the ED50 in the assay with Felis catus [1] was 0.08 mg/kg. The “inhibition (INH)” value with Felis catus [2] amounted to 0%. On the same counts, the results for `COc1ccccc1SCCNCC(O)COc1ccccc1.O=C(O)C(=O)O` (stereo unspecified) are 0.482 mg/kg and 24%. `O=[N+]([O-])c1ccccc1OCC(O)CNCCCSC1CCCCC1` (stereo unspecified): the inhibition entry in the assay with Felis catus [3] is “inactive”.
